Here are results for one compound from paper PMC9767854, “Discovery and mechanism studies of a novel ATG4B inhibitor Ebselen by drug repurposing and its anti-colorectal cancer effects in mice” (Cell & Bioscience, 2022).

The target in assay [1] is T1, ATG4B (Homo sapiens, UniProt Q9Y4P1).
T1 construct: 6xHis; made in house; host or cells: E. coli BL21(DE3)
T1 sequence (Q9Y4P1 1-393): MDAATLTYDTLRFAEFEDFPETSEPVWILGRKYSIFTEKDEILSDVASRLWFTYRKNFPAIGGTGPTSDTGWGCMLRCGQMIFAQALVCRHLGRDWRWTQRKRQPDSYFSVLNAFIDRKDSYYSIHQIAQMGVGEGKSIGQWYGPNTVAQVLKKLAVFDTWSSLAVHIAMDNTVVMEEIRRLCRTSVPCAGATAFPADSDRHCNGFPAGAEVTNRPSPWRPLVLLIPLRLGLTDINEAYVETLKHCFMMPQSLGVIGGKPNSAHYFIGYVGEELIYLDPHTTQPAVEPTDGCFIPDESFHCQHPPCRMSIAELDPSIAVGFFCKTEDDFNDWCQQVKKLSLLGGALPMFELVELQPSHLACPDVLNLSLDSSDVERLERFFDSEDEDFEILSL
The experiment in a line: FRET-based assay for ATG4B activity. Type of assay: biochemical.
Description: FRET-based assay for ATG4B or ATG4A activity was operated as previously described [5, 17]. Briefly, Recombinant protein ATG4B (0.75 μg/ml) or ATG4A (5 μg/ml) was incubated with compounds in reaction buffer (150 mM NaCl, 20 mM Tris–HCl, pH 8.0, 0.1% CHAPS, 1 mM EDTA) at 37 °C. After 30 min, substrate FRET-GATE-16 (50 μg/ml) was added to a final volume of 50 μl. The reaction was recorded via relative fluorescence intensity ratio of 527 nm/477 nm (RFU). The final inhibition rate of the compound for ATG4 was calculated as: (RFUcompound-RFUNC)/(RFUCON-RFUNC) × 100%; respectively, NC as negative control without inhibitor, CON as control without enzymes.

The target of assay [2] is T2, Caspase 3 (Homo sapiens, UniProt P42574).
T2 construct: Beyotime (assay kit only) C1115
Description: Caspase activity assay kit, CASP3. Type of assay: biochemical. To be noted: 10 μM. The protocol: The enzyme activity of Caspase 1, Caspase 2, Caspase 3, Caspase 4, Caspase 6, Caspase 8 and Caspase 9 were determined via the activity assay kits (C1101, C1107, C1115, C1121, C1135, C1151 and C1157) from Beyotime (Shanghai, China). Then the experimental procedures were performed according to the manufacturer’s protocols.

In assay [3] the target is T1, ATG4B. The experiment in a line: ATG4B oligomerization by non-reducing electrophoresis. The format is biochemical. The conditions noted are these: ATG4B 5 μM; Ebselen 5, 25, 50 μM or FMK-9a 50 μM; 0.5, 1, 3 h.
Description: The aggregates formed could be reversibly regulated by a reducing agent, because an assay to add dithiothreitol (DTT) into the reaction was operated. […] Furthermore, we also evaluated the redox properties of analogues on ATG4B.
Assay [4] addresses T3, ATG4B 2CS (C292/361S) mutant (Homo sapiens, UniProt Q9Y4P1, C292S/C361S).
T3 construct: 6xHis; made in house; host or cells: E. coli BL21(DE3)
Description: FRET-based assay, ATG4B 2CS mutant. Type of assay: biochemical. To be noted: Ebselen 0.5 μM, 15-90 min; read-out: inhibition rate against ATG4B 2CS.
Description: FRET-based assay for ATG4B or ATG4A activity was operated as previously described [5, 17]. Briefly, Recombinant protein ATG4B (0.75 μg/ml) or ATG4A (5 μg/ml) was incubated with compounds in reaction buffer (150 mM NaCl, 20 mM Tris–HCl, pH 8.0, 0.1% CHAPS, 1 mM EDTA) at 37 °C. After 30 min, substrate FRET-GATE-16 (50 μg/ml) was added to a final volume of 50 μl. The reaction was recorded via relative fluorescence intensity ratio of 527 nm/477 nm (RFU). The final inhibition rate of the compound for ATG4 was calculated as: (RFUcompound-RFUNC)/(RFUCON-RFUNC) × 100%; respectively, NC as negative control without inhibitor, CON as control without enzymes. For ATG4 activity determination in cells and tissues, cells or separated tumor samples were homogenized in a native lysis buffer (150 mM NaCl, 20 mM Tris–HCl, pH 7.6, 1% TritonX-100, 1 mM EDTA) without protease inhibitors. Then 5 μg total proteins from each sample was added into FRET assay system after clean supernatant proteins were separated. The reaction was recorded via relative fluorescence intensity ratio of 527 nm/477 nm. Finally, the inhibition rates of ATG4B were calculated with the vehicle or CM group as the negative control (ATG4 activity defined as 100%).

Assay [5] relates to HCT116. Description: Autophagy flux by LC3B-II western blot in HCT116. To be noted: Ebselen 5 and 10 μM with CQ 40 μM. The format is cell-based. As to the method: (§1) Fig. 5 Ebselen suppresses autophagy flux via inhibition of ATG4B. A, B HeLa cells were treated with Torin 1 (2 μM) or CQ (40 μM) and detected by western blot. C, D SW620 cells were transduced with sgCon and sgATG4B lentiviruses, respectively. Then cells were treated with CQ (40 μM) and detected by western blot. E, F HCT116 were treated with Ebselen (5 and 10 μM) or CQ (40 μM) and subjected to western blot. G, H SW620 were treated with Ebselen (10 μM) or CQ (40 μM) and western blotting was carried out to detect the protein levels. I, J Immunofluorescence analysis of endogenous LC3B in HCT116 treated with Ebselen (10 μM) or CQ (40 μM). Dots numbers for LC3B were derived from counting at least 20 cells and 5 fields from three independent replicated experiments. Bar = 10 μm. K HCT116 cells were treated with 2 μM Torin 1 in the presence or absence of 10 μM Ebselen for 12 h, then the level ratio of long-lived proteins was measured by flow cytometry
Immunoblotting assay was performed reportedly previously. Commonly, cells were lysed in ice-cold RIPA lysis buffer (Beyotime, P0013B) supplemented with Pierce™ protease inhibitor tablet (ThermoFisher Scientific, A32965). […]
(Immunoblotting shows a protein as a band on a membrane.)

Assay [6] relates to HCT116. The experiment in a line: Immunofluorescence of endogenous LC3B dots. Type of assay: cell-based. To be noted: Ebselen 10 μM, CQ 40 μM. As to the method:
as §1
Immunofluorescence staining was carried out as described before. Respectively, cells seeded on glass-bottom 35-mm dishes (SORFA bio, 201,200) were washed with PBS and fixed for 20 min at room temperature with 4% paraformaldehyde after related administration. Subsequently, dishes were permeabilized with 0.3% Triton X-100 in PBS, and washed to be blocked in goat serum (Boster, AR1009) for 1 h before incubated with primary antibody overnight at 4℃. […]

The subject of assay [7] is ATG4B KO HCT116. Description: Cell viability by CCK-8 assay, ATG4B KO HCT116. Type of assay: cell-based. The protocol: WT/ATG4B KO HCT116, WT/ATG4B KO SW620 and WT/ATG4B KO RKO cells were seeded in 96-well plate at 1000–1500 cells per well for cell viability assay, and seed in 6-well plate at 1 × 10^5 cells per well for cell number counting. After 12 h, the indicated drugs were added to the medium and cultured for another 96 h. Total viable cell numbers were counted by a cell counter (BioRAD), and cell viability was determined by cell-count-8 assay kit (CCK-8, Bimake, B34304) according to the manufacturer’s protocol.
(In general: Formazan colour is commonly taken as a measure of viable cells.)

For assay [8], the system named is HCT116 based xenograft. The experiment in a line: HCT116 subcutaneous xenograft tumor model. The format is in vivo, BALB/c-nu/nu mice. To be noted: i.p., compared with SW620 xenografts. The protocol: Four- to six-weeks-old BALB/C nu/nu female mice purchased from the Experimental Animal Center of Sun Yat-Sen University, were approved by the Animal Ethics Committee at Sun Yat-sen University and kept in specific-pathogen-free environment. Approximately 2 × 10^6 SW620 cells or 1 × 10^7 HCT116 cells were injected subcutaneously into the dorsal flank on the right side of the mice. Different groups were divided randomly when the tumor volume was approximately 60–80 mm^3, before drug administration intraperitoneally (i.p.). Tumor volume was measured by calipers and calculated using the equation: 0.5 × length × width^2. At the end of the experiments, the mice were sacrificed and tumors were dissected and weighed. In particular, we employed Servicebio (Wuhan, China) to carry out H&E staining and immunohistochemistry assay.
Supplementary file 13578_2022_944_MOESM1_ESM.docx: Additional file 1: Figure S1. Screening of ATG4B inhibitors based on the approved drugs library by FRET assay. […] (D) Candidate compound number and name correspondence table, and IC50 calculation of nine commercially available compounds for ATG4B by FRET assay. Figure S2. […] Figure S3. […] Figure S5. […] Figure S6.

T2 sequence (P42574 29-175 limits assumed, species assumed): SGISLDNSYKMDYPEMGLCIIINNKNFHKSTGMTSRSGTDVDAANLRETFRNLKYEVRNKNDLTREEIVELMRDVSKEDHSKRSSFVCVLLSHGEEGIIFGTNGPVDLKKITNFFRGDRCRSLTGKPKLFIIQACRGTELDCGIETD
T2 sequence (P42574 176-277 limits assumed, species assumed): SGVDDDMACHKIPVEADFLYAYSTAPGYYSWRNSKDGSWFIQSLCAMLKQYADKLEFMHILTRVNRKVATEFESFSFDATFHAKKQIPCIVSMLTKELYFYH
T3 sequence (Q9Y4P1 whole entry C292S/C361S): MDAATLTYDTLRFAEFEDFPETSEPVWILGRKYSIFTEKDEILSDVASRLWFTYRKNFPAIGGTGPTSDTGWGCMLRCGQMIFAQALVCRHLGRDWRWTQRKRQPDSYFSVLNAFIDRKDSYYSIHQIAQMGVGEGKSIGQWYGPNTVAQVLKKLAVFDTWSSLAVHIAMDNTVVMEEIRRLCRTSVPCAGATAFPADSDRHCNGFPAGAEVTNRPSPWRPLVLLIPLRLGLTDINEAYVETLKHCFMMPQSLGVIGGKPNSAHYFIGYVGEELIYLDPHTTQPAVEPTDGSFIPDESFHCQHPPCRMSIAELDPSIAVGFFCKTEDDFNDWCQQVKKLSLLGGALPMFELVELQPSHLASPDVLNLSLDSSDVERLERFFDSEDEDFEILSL

By IC50 is commonly meant the point on the concentration scale where inhibition reaches its midpoint. Usually inhibition stands for how much of the control response was suppressed. Consider `O=c1c2ccccc2[se]n1-c1ccccc1` [Ebselen], for which, in assay [1] (Ebselen 0.5 μM, 15-90 min, compared to 2CS), the “inhibition rate against ATG4B WT” value is listed as “higher inhibition rate”. Further, the IC50 in assay [1] (recombinant ATG4B 0.75 μg/ml, 30 min preincubation at 37 °C) is 0.189 µM; in assay [7] (Homo sapiens, HCT-116, CCK-8, 96 h), 28.1 µM. Moreover, the “effect on CASP3 activity” value in assay [2] was “certain inhibition”. Moreover, the ATG4B oligomerization entry in assay [3] was “oligomerization occurred”. Also, the inhibition at 0.5 µM in assay [4] is under 90%. In assay [5], the “autophagic flux (LC3B-II)” value is “inhibition of autophagic flux”. Besides, the “number of endogenous LC3B dots” value in assay [6] is “decreased”. For the same compound, the “effect on viability of ATG4B deficient cells” value in assay [7] (Fig. 6F) is reported as “almost no effect”. Also, the tumor suppression result in assay [8] is “slightly weaker potential for tumor suppression”.
